Experimental findings from ChEMBL document CHEMBL1201862, “PubChem BioAssay data set” (2004) are described below.

Among the test systems are OVCAR-3; ACHN; NCI-H460; SK-OV-3; NCI-H226; SF-295; SR; CCRF-CEM; HT-29; HCC 2998; TK-10; KM12; SW-620; NCI-H522; NCI-H23; A549; SF-268.
What all share (test): NCI-60 cell line screen, 48 h

The structures appear in SMILES notation.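 Following 48 hours of exposure in 96-well plates, responses at five concentrations were used to interpolate endpoints linearly. The concentration for 50% growth inhibition is given as GI50.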 The source made the active and inactive calls. Cut-off read from the data, not from the text of the source: active = GI50 up to about 1.1 µM and inactive = higher.

Take `CCCCN(CC)CC(C(C)=O)c1c(O)c2ccccc2oc1=O` (stereo not drawn): the GI50 with OVCAR-3, in the experiment on ACHN, in the experiment with NCI-H460, with SK-OV-3, with NCI-H226 and with SF-295 was > 100 µM (inactive) in each case. In addition, the GI50 in the experiment with SR, in the experiment on CCRF-CEM, in the experiment on HT-29, with HCC 2998, in the experiment on TK-10 and with KM12 was > 100 µM (inactive) each time. In addition, the GI50 in the experiment with SW-620 was > 100 µM (inactive); with NCI-H522, > 100 µM (inactive); with NCI-H23 it was 15.4 µM (inactive); with A549, > 100 µM (inactive); in the experiment on SF-268, > 100 µM (inactive).

In the case of `COc1cc(/C=C2\NC(=S)C3Cc4c(OC)c(C)c(OC)c(OC)c4C2N3C)c(OC)c(C)c1OC` (stereo not drawn), the GI50 in the experiment with OVCAR-3 was 31 µM (inactive); in the experiment with ACHN, 48.2 µM (inactive); in the experiment on NCI-H460 it was 14.9 µM (inactive); in the experiment with SK-OV-3, > 100 µM (inactive); in the experiment on NCI-H226, 22.6 µM (inactive); in the experiment on SF-295, 50.5 µM (inactive). For the same compound, the GI50 was 10.4 µM (inactive) in the experiment on SR; 38.7 µM (inactive) in the experiment on CCRF-CEM; 61.4 µM (inactive) in the experiment with HT-29; 69 µM (inactive) with HCC 2998; 46 µM (inactive) with TK-10; 92.9 µM (inactive) with KM12. Moreover, the GI50 with SW-620 is 59.4 µM (inactive); with NCI-H522, 20 µM (inactive); with NCI-H23 it was 86.1 µM (inactive); in the experiment on A549, 50.6 µM (inactive); in the experiment with SF-268 it was 95.3 µM (inactive).

As to `Cc1ccc(NCC(=O)N2CC(=O)Nc3ccccc32)c(C)c1`, the GI50 in the experiment with OVCAR-3, in the experiment on ACHN, with NCI-H460, with SK-OV-3, in the experiment on NCI-H226 and in the experiment on SF-295 was > 100 µM (inactive) each time. Besides, the GI50 in the experiment on SR, in the experiment on CCRF-CEM, in the experiment on HT-29, with HCC 2998, in the experiment with TK-10 and with KM12 was > 100 µM (inactive) throughout. In addition, the GI50 in the experiment on SW-620, in the experiment on NCI-H522, in the experiment with NCI-H23, with A549 and in the experiment on SF-268 was > 100 µM (inactive) throughout.

Regarding `Cc1ccccc1/N=N/c1c(-c2ccccc2)nn(C(=O)CC(=O)Nc2cccc(Cl)c2)c1-c1ccccc1`, the GI50 in the experiment with OVCAR-3 was 18.5 µM (inactive); in the experiment with ACHN, 23 µM (inactive); in the experiment with NCI-H460 it was 19.6 µM (inactive); in the experiment on SK-OV-3, 27.7 µM (inactive); in the experiment with NCI-H226, 16 µM (inactive); in the experiment on SF-295 it was 22 µM (inactive). Further, the GI50 was 9.1 µM (inactive) with SR; 15.8 µM (inactive) in the experiment on CCRF-CEM; 15.3 µM (inactive) in the experiment on HT-29; 22.2 µM (inactive) with HCC 2998; 0.27 µM (active) in the experiment with TK-10; 3.16 µM (inactive) in the experiment on SW-620. The GI50 is > 10 µM (inactive) in the experiment with NCI-H522, 20.1 µM (inactive) in the experiment with NCI-H23, > 10 µM (inactive) with A549 and 24 µM (inactive) in the experiment with SF-268.

With `COc1ccc(-c2cc(-c3ccco3)c(C#N)c(=O)n2C2OC(OC(=O)c3ccccc3)C(OC(=O)c3ccccc3)C2OC(=O)c2ccccc2)cc1` (stereo not drawn), the GI50 in the experiment on OVCAR-3 was 58.6 µM (inactive); in the experiment on ACHN, > 100 µM (inactive); with NCI-H460 it was > 100 µM (inactive); with NCI-H226 it was > 100 µM (inactive); in the experiment on SF-295, 50.2 µM (inactive); in the experiment with SR, > 100 µM (inactive). Also, the GI50 in the experiment on CCRF-CEM was > 100 µM (inactive); with HT-29 it was > 100 µM (inactive); in the experiment with HCC 2998, > 100 µM (inactive); in the experiment on TK-10 it was 13.6 µM (inactive); with KM12 it was > 100 µM (inactive); in the experiment on SW-620, > 100 µM (inactive). In addition, the GI50 in the experiment with NCI-H522 was 63.5 µM (inactive); with NCI-H23, > 100 µM (inactive); with SF-268, > 10 µM (inactive).

As to `C=CC1(C(=O)O)CCC(C(C)(C)C)CC1` (stereo not drawn), the GI50 in the experiment with OVCAR-3, with ACHN, in the experiment with NCI-H460, in the experiment with SK-OV-3, in the experiment on NCI-H226 and with SF-295 was > 100 µM (inactive) in each case. Also, the GI50 in the experiment with SR, with HT-29, in the experiment with HCC 2998, in the experiment on TK-10, with KM12 and in the experiment with SW-620 was > 100 µM (inactive) each time. Besides, the GI50 in the experiment on NCI-H522 is 86.1 µM (inactive); with NCI-H23, > 100 µM (inactive); with A549 it was > 100 µM (inactive); with SF-268, > 100 µM (inactive).

Regarding `COc1cc2c(cc1OC)[C@H]1C(COC(=O)c3ccccc3)CS/C(=N/c3ccccc3)N1CC2` (stereo partly drawn), the GI50 in the experiment on OVCAR-3 was > 100 µM (inactive); in the experiment with ACHN it was > 100 µM (inactive); in the experiment on NCI-H460, 91.8 µM (inactive); in the experiment with SK-OV-3, > 100 µM (inactive); with NCI-H226, 36.3 µM (inactive); with SF-295, > 100 µM (inactive). Besides, the GI50 was 5.71 µM (inactive) in the experiment with SR; > 100 µM (inactive) in the experiment with CCRF-CEM; 8.24 µM (inactive) with HT-29; > 100 µM (inactive) with HCC 2998; 81.1 µM (inactive) in the experiment on TK-10; > 100 µM (inactive) in the experiment with KM12. Moreover, the GI50 in the experiment with SW-620 was > 100 µM (inactive); in the experiment on NCI-H522 it was 2.34 µM (inactive); with NCI-H23, 5.9 µM (inactive); with A549 it was 82.6 µM (inactive); with SF-268, 8.69 µM (inactive).

With `O=C(COc1ccccc1Cl)N1N=C(c2ccc(Cl)cc2)CC1(O)c1ccccc1` (stereo not drawn), the GI50 in the experiment with OVCAR-3, with ACHN, in the experiment on NCI-H460, with SK-OV-3, with NCI-H226 and in the experiment on SF-295 was > 100 µM (inactive) each time. The GI50 with SR, with HT-29, in the experiment on HCC 2998, with TK-10, in the experiment on KM12 and in the experiment on SW-620 was > 100 µM (inactive) each time. For the same compound, the GI50 in the experiment on NCI-H522, in the experiment with NCI-H23, with A549 and in the experiment with SF-268 was > 100 µM (inactive) each time.

As to `COc1ccccc1/C=N/C12CC3CC(CC(C3)C1)C2`, the GI50 was > 100 µM (inactive) in the experiment on OVCAR-3; > 100 µM (inactive) with ACHN; > 100 µM (inactive) with NCI-H460; > 100 µM (inactive) in the experiment on SK-OV-3; > 10 µM (inactive) in the experiment with NCI-H226; > 100 µM (inactive) with SF-295. For the same compound, the GI50 with SR, with CCRF-CEM, in the experiment on HT-29, in the experiment with HCC 2998, with TK-10 and in the experiment on KM12 was > 100 µM (inactive) each time. Besides, the GI50 in the experiment on SW-620, with NCI-H522, in the experiment on NCI-H23, in the experiment with A549 and in the experiment on SF-268 was > 100 µM (inactive) throughout.
